These results are taken from ChEMBL document CHEMBL1148604 (J Med Chem, 2006).

≈ marks a conversion by molar mass, not a printed value.

Experiment [1] concerns the target T1, 3-oxoacyl-[acyl-carrier-protein] synthase 2 (Mycobacterium tuberculosis, UniProt P9WQD7).
T1 sequence (P9WQD7 whole entry): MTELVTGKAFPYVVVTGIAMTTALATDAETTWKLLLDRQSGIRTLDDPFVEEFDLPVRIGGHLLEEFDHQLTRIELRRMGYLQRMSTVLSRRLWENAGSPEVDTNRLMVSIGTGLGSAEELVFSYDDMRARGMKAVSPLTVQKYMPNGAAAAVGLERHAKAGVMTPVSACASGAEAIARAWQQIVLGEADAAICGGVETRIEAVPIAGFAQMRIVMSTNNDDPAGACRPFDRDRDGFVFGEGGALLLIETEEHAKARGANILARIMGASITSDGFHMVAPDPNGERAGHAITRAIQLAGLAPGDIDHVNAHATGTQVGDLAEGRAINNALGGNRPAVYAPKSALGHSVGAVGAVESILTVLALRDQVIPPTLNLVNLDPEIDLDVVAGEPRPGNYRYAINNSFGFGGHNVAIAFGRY
The experiment can be described thus: Inhibitory activity against KasB from Mycobacterium tuberculosis H37Rv.

In the next experiment the target is wild-type apo-KasA (Mycobacterium tuberculosis, UniProt P9WQD9). The experiment can be described thus: Inhibitory activity against KasA from Mycobacterium tuberculosis H37Rv.
Sequence of wild-type apo-KasA (P9WQD9 whole entry, looked up): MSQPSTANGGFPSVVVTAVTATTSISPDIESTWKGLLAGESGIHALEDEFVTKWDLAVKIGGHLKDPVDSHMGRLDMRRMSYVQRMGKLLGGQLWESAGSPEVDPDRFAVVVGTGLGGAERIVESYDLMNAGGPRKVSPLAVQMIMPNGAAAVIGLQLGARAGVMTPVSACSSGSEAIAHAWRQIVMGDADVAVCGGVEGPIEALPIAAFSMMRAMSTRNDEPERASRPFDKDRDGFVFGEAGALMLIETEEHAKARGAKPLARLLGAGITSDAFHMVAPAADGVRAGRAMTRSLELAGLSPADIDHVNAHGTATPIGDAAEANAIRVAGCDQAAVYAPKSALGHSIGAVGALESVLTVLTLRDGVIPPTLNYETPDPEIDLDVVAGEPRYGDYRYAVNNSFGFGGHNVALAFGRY
In experiment [2] the target is T2, Mycobacterial beta-ketoacyl-[acyl-carrier-protein] synthase III (Mycobacterium tuberculosis, UniProt P9WNG3).
T2 sequence (P9WNG3 whole entry): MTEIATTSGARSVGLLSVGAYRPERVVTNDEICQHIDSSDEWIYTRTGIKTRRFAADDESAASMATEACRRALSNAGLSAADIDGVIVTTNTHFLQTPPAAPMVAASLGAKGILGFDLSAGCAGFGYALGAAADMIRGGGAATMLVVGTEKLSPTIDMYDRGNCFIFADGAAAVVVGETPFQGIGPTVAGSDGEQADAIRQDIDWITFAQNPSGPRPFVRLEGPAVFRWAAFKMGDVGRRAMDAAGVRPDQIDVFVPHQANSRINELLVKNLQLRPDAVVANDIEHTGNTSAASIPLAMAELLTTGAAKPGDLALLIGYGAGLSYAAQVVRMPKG
The experiment can be described thus: Inhibitory activity against FabH from Mycobacterium tuberculosis H37Rv.

The target of experiment [3] is T3, 3-oxoacyl-[acyl-carrier-protein] synthase 1 (Escherichia coli K-12, UniProt P0A953).
T3 sequence (P0A953 whole entry): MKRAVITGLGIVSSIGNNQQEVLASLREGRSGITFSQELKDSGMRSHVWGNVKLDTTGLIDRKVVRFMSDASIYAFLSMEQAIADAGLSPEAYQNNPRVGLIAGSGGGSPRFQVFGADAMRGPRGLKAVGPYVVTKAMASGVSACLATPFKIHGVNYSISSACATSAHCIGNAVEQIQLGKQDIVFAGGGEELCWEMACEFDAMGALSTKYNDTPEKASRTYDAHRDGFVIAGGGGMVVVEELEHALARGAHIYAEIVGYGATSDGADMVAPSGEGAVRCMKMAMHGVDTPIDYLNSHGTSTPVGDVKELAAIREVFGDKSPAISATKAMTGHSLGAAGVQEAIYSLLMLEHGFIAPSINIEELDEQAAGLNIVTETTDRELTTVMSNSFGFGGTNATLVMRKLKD
Nature of the experiment: Inhibitory activity against FabB from Escherichia coli ANSI.

Experiment [4] deals with T4, 3-oxoacyl-[acyl-carrier-protein] synthase 3 (Escherichia coli, UniProt C3TDZ2).
T4 sequence (C3TDZ2 whole entry): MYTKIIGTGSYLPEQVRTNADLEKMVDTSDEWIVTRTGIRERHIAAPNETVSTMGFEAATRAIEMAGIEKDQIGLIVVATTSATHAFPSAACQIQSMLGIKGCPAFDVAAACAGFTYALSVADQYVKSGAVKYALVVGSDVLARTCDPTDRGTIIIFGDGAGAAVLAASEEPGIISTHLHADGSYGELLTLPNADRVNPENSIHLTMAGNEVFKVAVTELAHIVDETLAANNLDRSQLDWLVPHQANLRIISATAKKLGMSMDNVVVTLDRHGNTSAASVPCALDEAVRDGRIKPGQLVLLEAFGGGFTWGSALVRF
The experiment can be described thus: Inhibitory activity against FabH from Escherichia coli ANSI.

Experiment [5] concerns Mycobacterium tuberculosis. Nature of the experiment: Inhibitory activity against Mycobacterium tuberculosis H37Rv. In kind it is functional.
For another experiment, the system named is Escherichia coli. The experiment can be described thus: Inhibitory activity against Escherichia coli ANSI. It is filed as functional.

As usually defined, the IC50 is the point on the concentration scale where inhibition reaches its midpoint. Read a low IC50 as greater potency in that assay. For orientation: MIC means the lowest concentration found to suppress growth. The low end stands for greater potency, the high end for weaker potency. For the compound `CC1=C(O)C(C)(Cc2c(Cl)cccc2Cl)SC1=O` (stereo unspecified), the concentration for half-maximal inhibition (IC50) (in experiment [1]; at wild-type apo-KasA; in experiment [2]; in experiment [3]; in experiment [4]) was more than 1 mM each time. Further, the MIC in experiment [5] was 500 µM (≈ 152 µg/mL); in the experiment with Escherichia coli, more than 1000 µM.
Regarding `CC1=C(O)C(C)(Cc2ccc(F)cc2)SC1=O` (stereo unspecified), the IC50 in experiment [1] is more than 1 mM; against wild-type apo-KasA it was more than 1 mM; in experiment [2] it was more than 0.1 mM; in experiment [3] it was more than 1 mM; in experiment [4], more than 1 mM. The MIC (in experiment [5]; in the experiment on Escherichia coli) was more than 1000 µM in each case.
Regarding `CC1=C(O)C(C)(Cc2c(C)cc(C)cc2C)SC1=O` (stereo unspecified), the concentration for half-maximal inhibition (IC50) (in experiment [1]; against wild-type apo-KasA; in experiment [2]; in experiment [3]; in experiment [4]) was more than 1 mM throughout. Besides, the results for the MIC (in experiment [5]; against Escherichia coli) were 1000 µM (≈ 276 µg/mL) and more than 1000 µM, respectively.
Regarding `C=CCCCCCCC1(C)SC(=O)C(C)=C1O` (stereo unspecified), the IC50 (in experiment [1]; on wild-type apo-KasA; in experiment [2]; in experiment [3]; in experiment [4]) was more than 1 mM each time. Also, the MIC worked out at 500 µM (≈ 127 µg/mL) in experiment [5] and 200 µM (≈ 50.9 µg/mL) against Escherichia coli.
`CC1=C(O)C(C)(Cc2ccc3ccccc3c2)SC1=O` (stereo unspecified): the IC50 in experiment [1] is more than 1 mM; against wild-type apo-KasA, more than 1 mM; in experiment [2] it was more than 0.1 mM; in experiment [3], more than 1 mM; in experiment [4], more than 1 mM. Besides, the results for the MIC (in experiment [5]; in the experiment with Escherichia coli) were 500 µM (≈ 142 µg/mL) and more than 1000 µM, respectively.
On to `CC1=C(O)C(C)(Cc2cccc(Cl)c2)SC1=O` (stereo unspecified), for which the IC50 is more than 1 mM in experiment [1]; more than 0.1 mM against wild-type apo-KasA; more than 1 mM in experiment [2]; more than 1 mM in experiment [3]; more than 1 mM in experiment [4]. The MIC in experiment [5] is 1000 µM (≈ 269 µg/mL); against Escherichia coli, more than 1000 µM.
`CC1=C(O)C(C)(Cc2cccc(C)c2)SC1=O` (stereo unspecified): the half-maximal inhibitory concentration (IC50) (in experiment [1]; against wild-type apo-KasA; in experiment [2]; in experiment [3]; in experiment [4]) was more than 1 mM in each case. The MIC in experiment [5] is 1000 µM (≈ 248 µg/mL); with Escherichia coli, more than 1000 µM.
Consider `CCCCCCCCC(C)C1(C)SC(O)=C(C)C1=O` (stereo unspecified), for which the IC50 in experiment [1] was more than 1 mM; on wild-type apo-KasA, more than 1 mM; in experiment [2] it was 0.075 mM; in experiment [3] it was more than 1 mM; in experiment [4], more than 1 mM. Also, the figures for the MIC (in experiment [5]; in the experiment with Escherichia coli) were 1000 µM (≈ 284 µg/mL) and 35 µM (≈ 9.96 µg/mL), respectively.
Turning to `CC1=C(O)C(C)(Cc2ccc([N+](=O)[O-])cc2)SC1=O` (stereo unspecified), the IC50 (in experiment [1]; on wild-type apo-KasA; in experiment [2]; in experiment [3]; in experiment [4]) was more than 1 mM throughout. The MIC (in experiment [5]; against Escherichia coli) was more than 1000 µM throughout.
Regarding `CC1=C(O)C(C)(CC2CCCCC2)SC1=O` (stereo unspecified), the 50% inhibitory concentration (IC50) (in experiment [1]; at wild-type apo-KasA; in experiment [2]; in experiment [3]; in experiment [4]) was more than 1 mM in each case. Besides, the MIC (in experiment [5]; in the experiment on Escherichia coli) was more than 1000 µM in each case.
As for `CC1=C(O)C(C)(Cc2ccc(Cl)cc2)SC1=O` (stereo unspecified), the IC50 is more than 1 mM in experiment [1]; more than 1 mM at wild-type apo-KasA; more than 0.1 mM in experiment [2]; more than 1 mM in experiment [3]; more than 1 mM in experiment [4]. In addition, the figures for the MIC (in experiment [5]; in the experiment on Escherichia coli) were 1000 µM (≈ 269 µg/mL) and more than 1000 µM, respectively.
Regarding `CCCCCC(C)C1(C)SC(O)=C(C)C1=O` (stereo unspecified), the concentration for half-maximal inhibition (IC50) (in experiment [1]; against wild-type apo-KasA; in experiment [2]; in experiment [3]; in experiment [4]) was more than 1 mM each time. The MIC in experiment [5] is 1000 µM (≈ 242 µg/mL); in the experiment with Escherichia coli, 160 µM (≈ 38.8 µg/mL).
`CCCCCCCCCC1(C)SC(O)=C(C)C1=O` (stereo unspecified): the IC50 in experiment [1] was more than 1 mM; against wild-type apo-KasA, more than 1 mM; in experiment [2] it was more than 0.1 mM; in experiment [3], more than 1 mM; in experiment [4] it was more than 0.1 mM. In addition, the MIC in experiment [5] came out at 500 µM (≈ 135 µg/mL); against Escherichia coli, 100 µM (≈ 27 µg/mL).
On to `COc1ccc(CC2(C)SC(O)=C(C)C2=O)cc1` (stereo unspecified), for which the IC50 (in experiment [1]; at wild-type apo-KasA; in experiment [2]; in experiment [3]; in experiment [4]) was more than 1 mM each time. Moreover, the MIC (in experiment [5]; with Escherichia coli) was more than 1000 µM each time.
Turning to `CC/C=C/CC1(C)SC(O)=C(C)C1=O` (stereo unspecified), the IC50 (in experiment [1]; at wild-type apo-KasA; in experiment [2]; in experiment [3]; in experiment [4]) was more than 1 mM each time. Also, the MIC (in experiment [5]; against Escherichia coli) was more than 1000 µM each time.
For `COc1cc(CC2(C)SC(O)=C(C)C2=O)cc(OC)c1` (stereo unspecified), the IC50 (in experiment [1]; against wild-type apo-KasA; in experiment [2]; in experiment [3]; in experiment [4]) was more than 1 mM in each case. Besides, the minimum inhibitory concentration (MIC) (in experiment [5]; against Escherichia coli) was more than 1000 µM in each case.
On to `CCCCC(CC)CC1(C)SC(O)=C(C)C1=O` (stereo unspecified), for which the IC50 (in experiment [1]; against wild-type apo-KasA; in experiment [2]; in experiment [3]; in experiment [4]) was more than 1 mM each time. The minimum inhibitory concentration (MIC) in experiment [5] was 1000 µM (≈ 256 µg/mL); with Escherichia coli, more than 1000 µM.
With `COc1cccc(CC2(C)SC(O)=C(C)C2=O)c1` (stereo unspecified), the half-maximal inhibitory concentration (IC50) (in experiment [1]; against wild-type apo-KasA; in experiment [2]; in experiment [3]; in experiment [4]) was more than 1 mM in each case. Moreover, the minimal inhibitory concentration (MIC) (in experiment [5]; with Escherichia coli) was more than 1000 µM in each case.
As to `CC1=C(O)C(C)(CCCc2ccccc2)SC1=O` (stereo unspecified), the IC50 (in experiment [1]; against wild-type apo-KasA; in experiment [2]; in experiment [3]; in experiment [4]) was more than 1 mM in each case. For the same compound, the figures for the minimal inhibitory concentration (MIC) (in experiment [5]; against Escherichia coli) were 1000 µM (≈ 262 µg/mL) and more than 1000 µM, respectively.
Consider `CCCCCCCC1(C)SC(O)=C(C)C1=O` (stereo unspecified), for which the half-inhibitory concentration (IC50) (in experiment [1]; against wild-type apo-KasA; in experiment [2]; in experiment [3]; in experiment [4]) was more than 1 mM throughout. Moreover, the results for the MIC (in experiment [5]; in the experiment on Escherichia coli) were 1000 µM (≈ 242 µg/mL) and 200 µM (≈ 48.5 µg/mL), respectively.
As to `CC1=C(O)C(C)(Cc2cc(C)ccc2C)SC1=O` (stereo unspecified), the IC50 (in experiment [1]; against wild-type apo-KasA; in experiment [2]; in experiment [3]; in experiment [4]) was more than 1 mM in each case. The MIC (in experiment [5]; in the experiment on Escherichia coli) was more than 1000 µM throughout.
Take `CC1=C(O)C(C)(Cc2ccc(C(C)(C)C)cc2)SC1=O` (stereo unspecified): the 50% inhibitory concentration (IC50) was more than 1 mM in experiment [1]; more than 1 mM on wild-type apo-KasA; more than 0.1 mM in experiment [2]; more than 1 mM in experiment [3]; more than 1 mM in experiment [4]. Further, the values for the MIC (in experiment [5]; in the experiment on Escherichia coli) were 1000 µM (≈ 290 µg/mL) and more than 1000 µM, respectively.
As to `CC1=C(O)C(C)(Cc2cccc(C(F)(F)F)c2)SC1=O` (stereo unspecified), the 50% inhibitory concentration (IC50) (in experiment [1]; at wild-type apo-KasA; in experiment [2]; in experiment [3]; in experiment [4]) was more than 1 mM in each case. Besides, the minimum inhibitory concentration (MIC) in experiment [5] was 1000 µM (≈ 302 µg/mL); in the experiment with Escherichia coli, more than 1000 µM.
